From PubChem BioAssay (NCI)
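Exposure lasted 48 hours, with cells grown in 96-well plates and compounds tested at five concentrations. Abbreviation: GI50, concentration required for 50% inhibition of growth. The concentration for full growth arrest is given as TGI.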

Key:
Experiment in all cases: DTP human tumour cell line panel, 48 h
HT29 colon = system: HT29 colon
DU-145 prostate = system: DU-145 prostate
NCI-H460 lung = system: NCI-H460 lung
M14 melanoma = system: M14 melanoma
K-562 leukemia = system: K-562 leukemia
SK-MEL-5 melanoma = system: SK-MEL-5 melanoma
UACC-62 melanoma = system: UACC-62 melanoma
HL-60(TB) leukemia = system: HL-60(TB) leukemia
NCI-H226 lung = system: NCI-H226 lung
HS 578T breast = system: HS 578T breast

Row | SMILES | GI50 (HT29 colon) [µM] | TGI (HT29 colon) [µM] | GI50 (DU-145 prostate) [µM] | TGI (DU-145 prostate) [µM] | GI50 (NCI-H460 lung) [µM] | TGI (NCI-H460 lung) [µM] | GI50 (M14 melanoma) [µM] | TGI (M14 melanoma) [µM] | GI50 (K-562 leukemia) [µM] | TGI (K-562 leukemia) [µM] | GI50 (SK-MEL-5 melanoma) [µM] | TGI (SK-MEL-5 melanoma) [µM] | GI50 (UACC-62 melanoma) [µM] | TGI (UACC-62 melanoma) [µM] | GI50 (HL-60(TB) leukemia) [µM] | TGI (HL-60(TB) leukemia) [µM] | GI50 (NCI-H226 lung) [µM] | TGI (NCI-H226 lung) [µM] | GI50 (HS 578T breast) [µM] | TGI (HS 578T breast) [µM]
1 | CN1CCN(c2ccc(NC3=C(Cl)C(=O)c4ncccc4C3=O)cc2C(F)(F)F)CC1 | 2.34 | 5.56 | 1.91 | 3.71 | 17.4 | 34.8 | 1.78 | 3.67 | 0.435 | > 100 | 3.52 | 13.3 | 1.88 | 3.81 | 1.79 | 4.73 | 13 | 29.9 | 3.31 | 42.3
2 | COc1ccc(-n2nc(C)c3c(Nc4ccc(NC(=O)Nc5cc(C(F)(F)F)ccc5F)cc4)ncnc32)cc1 | 2.31 | 5.8 | 3.65 | > 100 | 2.89 | 8.7 | 1.9 | 4.64 | 2.99 | > 100 | 1.91 | 3.73 | 1.88 | 4.34 | 2.55 | 6.67 | 2.34 | 7.23 | 2.33 | 7.11
3 | CC(C)(C)OC(=O)N(CCCn1c2c(c3ccccc3c1=O)C(=O)c1ccccc1-2)CCN(CCCn1c2c(c3ccccc3c1=O)C(=O)c1ccccc1-2)C(=O)OC(C)(C)C | > 50 | > 50 | > 50 | > 50 | 27.3 | > 50 | > 50 | > 50 | 21.3 | > 50 | > 50 | > 50 | 45.3 | > 50 | > 50 | > 50 | > 50 | > 50 | 15.8 | > 50
4 | CC(C)(C)c1ccc(NC(=O)c2cc(=O)c3ccccc3[nH]2)c(C(C)(C)C)c1O | 2.21 | 4.78 | 10.7 | 23.5 | 3.72 | 13.9 | 3.81 | 13.9 | 4.37 | 16.7 | 6.51 | 19 | 9.65 | 22.9 | 4.27 | 17.2 | 13.6 | 28.9 | 6.46 | 39
5 | CCCCCCCCOC(=O)c1cc(O)c(O)c(O)c1 | 14.8 | 47.6 | 2.84 | 14 | 2.73 | 10.9 | 2.15 | 9.19 | 2.05 | > 38.8 | 3.26 | 11.6 | 3.27 | 15.3 | 0.486 | 5.02 | 8.51 | 29 | 2.4 | 22.2
6 | C[C@]1(O)CC(=O)[C@]2(O)C3=C(C=C[C@]2(O)C1)C(=O)c1c(O)cccc1C3=O | 3.26 | > 100 | 1.75 | 3.24 | 5.15 | 23.8 | 1.7 | 3.45 | 0.706 | 5.28 | 1.75 | 3.47 | 1.86 | 3.91 | 2.05 | 4.5 | 1.69 | 3.69 | 2.74 | 14.7
7 | S=C1SC2(CCCCCC2)NC2=C1CCCCC2 | – | > 100 | – | > 100 | – | 77.9 | – | > 100 | – | > 100 | – | 43.2 | – | > 100 | – | 38.5 | – | 52.4 | – | 47.6
8 | O=C1c2ccccc2C(=O)c2c1c(NCCNCCO)c1cc[nH]c1c2NCCNCCO | 2.78 | > 41.4 | 3.31 | > 59 | 7.78 | > 60.1 | 7.27 | > 55.1 | 1.63 | – | 3.17 | 16.4 | 1.48 | – | 2.9 | > 21 | 1.78 | 13.5 | 1.93 | 11.1
9 | C=C(C)[C@@H]1CC[C@]2(c3ncc(C)o3)CC[C@]3(C)[C@H](CC[C@@H]4[C@@](C)(CCC#N)[C@H](C(=C)C)CC[C@]43C)[C@@H]12 | 3.81 | 14.8 | 3.54 | 13.2 | 5.42 | 19.4 | 7.8 | 24.2 | 2.99 | > 100 | 3.65 | 13.7 | 2.38 | 6.96 | 2.49 | 6.83 | 3.28 | 14.5 | 4.3 | 19.4
10 | CCCCCn1ncc(-c2c(O)c(O)cc3c(O)c(-c4c(C)cc5c(-c6cnn(CCCCC)n6)c(O)c(O)cc5c4O)c(C)cc23)n1 | 0.12 | 3.45 | 0.0647 | 6.02 | 0.0258 | 0.465 | 0.182 | 2.89 | 0.0837 | 8.44 | 0.388 | 2.31 | 0.145 | 1.27 | 0.124 | 3.57 | 0.141 | 2.8 | 0.152 | 8.87
11 | CCc1nc2cc(/C=C/C(=O)NO)c(F)cc2c(=O)n1CCc1ccccc1 | 0.588 | 12.5 | 0.666 | 10.5 | 0.349 | 3.4 | 1.15 | 3.8 | 1.65 | > 100 | 0.512 | 2.52 | 0.597 | 3.38 | 3.71 | > 100 | 1.25 | 5.98 | 2.95 | 45.2
12 | COc1ccc(-c2ccc(=O)oc2-c2cc(OC)c(OC)c(OC)c2)cc1O | 0.663 | – | 0.0297 | – | 0.0244 | – | 0.018 | > 100 | < 0.0229 | > 100 | < 0.01 | 3.45 | < 0.0402 | > 100 | 0.0208 | 0.0705 | 0.199 | > 100 | 0.0275 | > 100
13 | Cc1ccc2nc(NC(=O)CSC(=S)N3CCN(Cc4ccccc4)CC3)sc2c1 | 75.2 | > 100 | > 100 | > 100 | > 100 | > 100 | > 100 | > 100 | > 100 | > 100 | 56 | > 100 | > 100 | > 100 | > 83.6 | > 100 | > 100 | > 100 | > 100 | > 100
14 | O=C(/C=C/c1ccccc1)c1ccc(O)c(CN2CCN(c3cc4c(cc3F)c(=O)c(C(=O)O)cn4C3CC3)CC2)c1 | 1.58 | > 100 | 1.53 | > 100 | 3.85 | > 100 | 1 | > 100 | 0.278 | > 100 | 1.89 | 7.48 | 1.67 | > 100 | 0.77 | > 100 | 3.54 | > 100 | 0.577 | > 100
15 | Cc1cc(Cl)ccc1OCC(=O)Oc1c(Cl)c(Cl)c(Cl)c(Cl)c1Cl | – | 69.1 | – | 49.2 | – | 51.9 | – | 71.4 | – | > 100 | – | 61.9 | – | 46.6 | – | > 100 | – | 53.8 | – | 66.3
16 | COc1cc([N+](=O)[O-])c(S(=O)(=O)O)cc1-n1nc(-c2ccccc2)n[n+]1-c1cc(S(=O)(=O)[O-])c([N+](=O)[O-])cc1OC | – | > 100 | – | > 100 | – | > 100 | – | > 100 | – | > 100 | – | > 100 | – | > 100 | – | > 100 | – | > 100 | – | > 100
17 | COc1ccc(S(=O)(=O)N2CCCCC2)cc1NC(=O)c1[nH]c(C)c2c1CCCCC2=O | 0.822 | 21.7 | 7.56 | > 100 | 4.01 | > 100 | 1.49 | > 100 | 1.75 | > 100 | 1.4 | 3.88 | 0.356 | 7.74 | 0.444 | 6.86 | 1.27 | 34.7 | 1.45 | > 100
18 | CNC1=C(Br)C(=O)C2=C(C1=O)C1C3=C(C(=O)C=CC3=O)C2c2ccccc21 (stereo not given) | 2.72 | > 100 | 4.06 | 10.3 | 18.6 | > 85.7 | 1.98 | 11.5 | 2.65 | > 23.7 | 5.52 | 18.6 | 2.52 | 6.85 | 2.18 | > 100 | 5.19 | 14.4 | 12.7 | 70.3
19 | CC(=O)OC1CC(C)c2c1ncnc2N1CCN(C(=O)OC(C)(C)C)CC1 (stereo not given) | 37.1 | 88.5 | 31.9 | 86.9 | 34.7 | > 100 | 30.4 | > 100 | 37.8 | > 100 | 37.8 | > 100 | 46.4 | > 100 | 25.9 | 83.6 | 63.9 | > 100 | 83.5 | > 100
